Experimental findings from paper PMC10958501, “4-Oxypiperidine Ethers as Multiple Targeting Ligands at Histamine H3 Receptors and Cholinesterases” (ACS Chemical Neuroscience, 2024) are described below.

For one test, the target named is T1, gpH3R (Cavia porcellus, UniProt Q9JI35).
T1 construct: isolated guinea pig ileum electrically stimulated to contraction; from tissue; host or cells: distal ileum of male guinea pigs
In words: Ex vivo gpH3R screening on isolated guinea pig ileum electrically stimulated to contraction. Here is the method:
All newly synthesized compounds were evaluated ex vivo as H3R antagonists/inverse agonists on guinea pig ileum (gpH3R) stimulated electrically for contraction.[47]
The compounds were tested against H3R by an ex vivo assay using isolated guinea pig ileum electrically stimulated to contraction, according to Vollinga et al.[47] The pA2-values were calculated according to Arunlakshana and Schild.[59] The radioligand-displacement assay was performed in membrane fractions of HEK-293 cells stably expressing hH3R. Cell cultivation and membrane preparation were performed according to Kottke et al.[48] The Ki values were calculated from the IC50 values using the Cheng–Prusoff equation.[60] The statistical calculations were performed on −log(Ki). […] The inhibitory activities toward AChE and BuChE of novel ADS compounds were assessed in a spectrophotometric Ellman’s assay using electric eel AChE (eeAChE) and equine BuChE (eqBuChE).[57] Intracellular cAMP accumulation was measured with a homogeneous TR-FRET immunoassay using the LANCE Ultra cAMP kit (PerkinElmer) and HEK293 cells stably expressing the human histamine H3 receptor.[61] A more detailed description of the biological methods is presented in the Supporting Information.
3. Pharmacological assay results.
3.1. Ex vivo assay for histamine H 3R receptor antagonists on guinea pig ileum.
Male guinea pigs, weighing 300-400 g were euthanized by a blow to the neck. Following this, a 20-30 cm length of the distal ileum, apart from the terminal 5 cm was rapidly removed and […]
USA) (1·10 -6 mol/L). The intraluminal content was rinsed and the isolated intestine was cut into 1.5-2 cm segments. The preparations were mounted between two platinum electrodes […]
and indomethacin (3·10 -7 mol/L).
CO2 mixture and maintained at 37 °C under a constant load of 1.0 g (Hugo Sachs Hebel-Messvorsatz (Tl-2)/HF-modem; Hugo Sachs Elektronik, Hugstetten, Germany) connected to a pen recorder (Kipp & Zonen BD41, Delft, Holland). During an equilibration period of 60 min, the Krebs buffer was changed every 10 min. The preparations were then continuously stimulated at 15-20 V at a frequency of 0.1 Hz for a duration of 0.5 ms, with rectangular-wave electrical pulses (Grass Stimulator S-88; Grass Instruments Co., Quincy, Massachusetts, […]
USA). […] Five minutes before (R)-(−)-α- […]
methylhistamine (RAMH) (Toronto Research Chemicals Inc., North York, Canada), administration, pyrilamine (Sigma-Aldrich, St. Louis, MO, USA) (1·10-5 mol/L concentration in organ bath) was added. The first cumulative concentration-response curve was determined […]
second to fourth curve was measured against increasing antagonist concentration (incubation time 20 min). The pA2-values were calculated according to Arunlakshana and Schild 5.
Statistical analysis was carried out with the Student’s t-test. In all tests, a p<0.05 was […]
considered statistically significant. The pA2 values were compared with the affinity of thioperamide (Sigma-Aldrich, St. Louis, MO, USA). […]

A further test deals with T2, eeAChE (Electrophorus electricus, UniProt O42275).
T2 construct: purchased Sigma–Aldrich (Steinheim, Germany)
T2 sequence (O42275 24-633): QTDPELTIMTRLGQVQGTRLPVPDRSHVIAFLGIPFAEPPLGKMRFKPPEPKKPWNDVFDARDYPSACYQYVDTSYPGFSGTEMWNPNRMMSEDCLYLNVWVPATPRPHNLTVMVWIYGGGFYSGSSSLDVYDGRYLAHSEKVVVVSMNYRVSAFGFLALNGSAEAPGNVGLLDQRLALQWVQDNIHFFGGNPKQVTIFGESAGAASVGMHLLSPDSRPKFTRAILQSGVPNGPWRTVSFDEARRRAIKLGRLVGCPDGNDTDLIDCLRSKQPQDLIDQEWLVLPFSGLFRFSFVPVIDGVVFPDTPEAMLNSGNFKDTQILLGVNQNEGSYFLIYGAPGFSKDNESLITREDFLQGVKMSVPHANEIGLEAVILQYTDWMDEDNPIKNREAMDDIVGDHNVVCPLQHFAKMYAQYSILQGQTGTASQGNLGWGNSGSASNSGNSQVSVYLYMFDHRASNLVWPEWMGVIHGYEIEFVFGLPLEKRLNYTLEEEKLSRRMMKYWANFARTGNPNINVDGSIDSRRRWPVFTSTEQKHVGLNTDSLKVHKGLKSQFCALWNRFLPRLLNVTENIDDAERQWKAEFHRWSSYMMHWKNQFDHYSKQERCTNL
In words: biochemical.

For another test, the target named is eqBuChE (Equus caballus, UniProt P81908). In words: biochemical.
Sequence of eqBuChE (P81908 whole entry): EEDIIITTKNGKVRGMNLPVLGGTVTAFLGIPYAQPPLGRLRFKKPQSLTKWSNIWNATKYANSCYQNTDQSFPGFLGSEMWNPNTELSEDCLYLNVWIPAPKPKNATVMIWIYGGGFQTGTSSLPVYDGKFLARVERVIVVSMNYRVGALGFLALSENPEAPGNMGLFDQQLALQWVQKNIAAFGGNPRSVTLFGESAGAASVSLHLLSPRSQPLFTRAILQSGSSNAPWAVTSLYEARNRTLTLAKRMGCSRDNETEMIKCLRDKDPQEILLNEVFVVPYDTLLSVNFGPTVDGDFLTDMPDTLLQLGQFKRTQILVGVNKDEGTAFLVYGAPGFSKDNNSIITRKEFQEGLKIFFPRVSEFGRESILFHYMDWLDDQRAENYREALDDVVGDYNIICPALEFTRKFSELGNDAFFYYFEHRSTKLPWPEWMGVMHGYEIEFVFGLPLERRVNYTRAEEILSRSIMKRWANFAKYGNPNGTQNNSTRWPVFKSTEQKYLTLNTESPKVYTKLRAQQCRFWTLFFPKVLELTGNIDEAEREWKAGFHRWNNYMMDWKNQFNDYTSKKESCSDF
The target in test [1] is T3, human histamine H3 receptor (Homo sapiens, UniProt Q9Y5N1).
T3 construct: expressed in transfected cells
T3 sequence (Q9Y5N1 whole entry): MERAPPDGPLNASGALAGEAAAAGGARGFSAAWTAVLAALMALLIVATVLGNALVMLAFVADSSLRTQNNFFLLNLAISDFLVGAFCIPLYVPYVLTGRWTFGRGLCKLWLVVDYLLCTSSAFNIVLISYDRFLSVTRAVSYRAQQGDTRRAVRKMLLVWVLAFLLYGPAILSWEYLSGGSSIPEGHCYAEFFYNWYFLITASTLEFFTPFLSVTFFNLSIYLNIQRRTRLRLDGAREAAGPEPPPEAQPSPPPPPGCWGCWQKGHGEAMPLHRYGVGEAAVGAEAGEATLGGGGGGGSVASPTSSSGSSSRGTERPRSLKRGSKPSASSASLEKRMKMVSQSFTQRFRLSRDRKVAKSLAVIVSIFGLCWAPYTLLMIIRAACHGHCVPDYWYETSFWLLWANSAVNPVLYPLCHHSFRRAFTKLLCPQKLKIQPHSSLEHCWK
The test can be described thus: H3R intrinsic activity, cAMP accumulation assay in HEK293 cells. The format is cell-based. The method, then:
For the lead compound ADS031, intrinsic activity at H3R was tested in HEK293 cells expressing recombinant human receptors using a cAMP accumulation assay. […] […].
The compounds were tested against H3R by an ex vivo assay using isolated guinea pig ileum electrically stimulated to contraction, according to Vollinga et al.[47] The pA2-values were calculated according to Arunlakshana and Schild.[59] The radioligand-displacement assay was performed in membrane fractions of HEK-293 cells stably expressing hH3R. Cell cultivation and membrane preparation were performed according to Kottke et al.[48] The Ki values were calculated from the IC50 values using the Cheng–Prusoff equation.[60] The statistical calculations were performed on −log(Ki). The mean values and 95% confidence intervals were transformed to nanomolar concentrations. The inhibitory activities toward AChE and BuChE of novel ADS compounds were assessed in a spectrophotometric Ellman’s assay using electric eel AChE (eeAChE) and equine BuChE (eqBuChE).[57] Intracellular cAMP accumulation was measured with a homogeneous TR-FRET immunoassay using the LANCE Ultra cAMP kit (PerkinElmer) and HEK293 cells stably expressing the human histamine H3 receptor.[61] A more detailed description of the biological methods is presented in the Supporting Information.
3.4. H3R intrinsic activity.
Intracellular cAMP accumulation was measured with homogenous TR-FRET immunoassay, using LANCE Ultra cAMP kit (PerkinElmer) and HEK293 cells, stably expressing human histamine H3 receptor. An antagonist dose-response experiments were performed in a total assay volume of 20 μl in white 384-well plates, using 750 cells/well. […] TR-FRET signal was read on Spark microplate reader (Tecan Life Sciences). Measured TR-FRET, which was inversely proportional to cAMP quantities in the sample, was then normalized and presented as % of maximal cAMP accumulation in the assay determined for the forskolin alone-stimulated cells. […]
In general terms: cAMP levels reflect the balance of adenylyl cyclase and phosphodiesterase activity.

T1 sequence (Q9JI35 whole entry): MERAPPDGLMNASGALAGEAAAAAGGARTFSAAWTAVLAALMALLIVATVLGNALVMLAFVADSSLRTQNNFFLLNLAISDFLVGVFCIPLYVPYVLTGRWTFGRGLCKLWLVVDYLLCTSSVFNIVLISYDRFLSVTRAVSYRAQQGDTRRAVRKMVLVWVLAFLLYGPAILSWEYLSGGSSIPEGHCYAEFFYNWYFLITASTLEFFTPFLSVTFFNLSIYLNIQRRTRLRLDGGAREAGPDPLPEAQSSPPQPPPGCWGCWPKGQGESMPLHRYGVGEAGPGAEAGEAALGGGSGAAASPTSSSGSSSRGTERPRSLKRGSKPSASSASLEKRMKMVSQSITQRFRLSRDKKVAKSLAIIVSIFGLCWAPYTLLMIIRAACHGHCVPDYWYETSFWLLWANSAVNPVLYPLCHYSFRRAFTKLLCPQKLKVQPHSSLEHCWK

The term IC50 denotes the concentration that gives 50% inhibition. Regarding `CCCN(C)Cc1ccc2cc(COC3CCN(Cc4ccccc4)CC3)ccc2c1` [ADS031, N-((6-(((1-Benzylpiperidin-4-yl)oxy)methyl)naphthalen-2-yl)methyl)-N-methylpropan-1-amine], the Kb is 28.8 nM on gpH3R and 0.75 ± 0.15 nM in test [1] (Leff-Dougall variant of Cheng-Prusoff equation, read-out: Kb in H3R functional assay (cAMP accumulation)). In addition, the inhibition at 10 µM on eeAChE (read-out: eeAChE % inh. (10μM) ± SD) turned out to be 84.2 ± 0.6%; at eqBuChE (read-out: eqBuChE % inh. (10 μM) ± SD), 93.1 ± 0.4%. Moreover, the IC50 on eeAChE (read-out: eeAChE IC50 (μM) ± sem) came to 1.54 ± 0.038 µM; on eqBuChE (read-out: eqBuChE IC50 [μM] ± sem), 1.35 ± 0.05 µM; in test [1] (against (R)-(−)-α-methylhistamine (30 nM), forskolin-stimulated HEK293 cells, read-out: IC50 in H3R functional assay (cAMP accumulation)), 41.7 ± 8.5 nM. Besides, in test [1] (cAMP accumulation assay), the H3R intrinsic activity entry is reported as “H3R antagonist/inverse agonist”.
